# From US8791118B2, “Pyridopyrazines as highly selective ras-Raf-Mek-Erk signal transduction pathway inhibitors” (Aeterna Zentaris GmbH, priority 2011, dated 2014)
# Biological target: Erk2 (Homo sapiens, UniProt P28482)
# Test: Erk2 alpha kinase assay (cell-free, ALPHA technology)
# Type: biochemical
# Conditions: 10 μM ATP
# Experimental: The inhibitory effect of the compounds according to the invention was tested on various serine/threonine, tyrosine and lipid kinases in enzymatic assays. Recombinant human kinases such as, for example, Erk2, were used in this case, partly as full-length kinases, partly as shortened fragments, but at least consisting of the functional kinase domains. The commercial kinase proteins (Proqinase, Upstate) were used as recombinant fusion proteins with GST (glutathion-S-transferase) or His-Tag. Depending on the type of substrate, the various kinase reactions were quantified by means of suitable ALPHA™ beads (Perkin-Elmer). The substance testing is described in detail hereinafter for the Erk assay. […] a) MAPK-ALPHAs (e.g. […] The fluorescence was detected the following morning in a Envision plate reader (Perkin-Elmer). The %-inhibition values per substance concentration were calculated by means of the following formula from the raw data determined in the Envision plate reader[…]: Eight determinations were made for each control and two for the substance samples. […] The IC50 values were determined using GraphPadPrism.
# Chain of Erk2 (P28482 2-360 limits assumed): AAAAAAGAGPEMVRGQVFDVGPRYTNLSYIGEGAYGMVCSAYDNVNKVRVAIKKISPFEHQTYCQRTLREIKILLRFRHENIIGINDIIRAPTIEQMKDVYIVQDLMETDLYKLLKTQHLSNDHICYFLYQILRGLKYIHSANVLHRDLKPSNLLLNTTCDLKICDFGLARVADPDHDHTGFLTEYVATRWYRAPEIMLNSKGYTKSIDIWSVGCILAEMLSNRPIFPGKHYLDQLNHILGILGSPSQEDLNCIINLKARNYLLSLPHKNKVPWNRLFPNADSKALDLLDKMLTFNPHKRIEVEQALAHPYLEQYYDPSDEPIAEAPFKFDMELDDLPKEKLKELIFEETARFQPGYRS
row,Structure (SMILES),IC50
1,"O=C(NCCCCc1ccccc1)Nc1ccc2ncc(-c3ccc(OCCN4CCOCC4)cc3)nc2n1 [Compound 202, 1-{3-[4-(2-Morpholin-4-yl-ethoxy)-phenyl]-pyrido[2,3-b]pyrazin-6-yl}-3-(4-phenyl-butyl)-urea]",41 nM
2,"COCc1cccc(-c2cnc3ccc(NC(=O)N[C@H](C)CCCc4ccccc4)nc3n2)c1 [Compound 203, 1-[3-(3-Methoxymethyl-phenyl)-pyrido[2,3-b]pyrazin-6-yl]-3-((R)-1-methyl-4-phenyl-butyl)-urea]",24 nM
3,"COc1cc(-c2cnc3ccc(NC(=O)NCCCCc4ccccc4)nc3n2)ccc1C(=O)O [Compound 194, 2-Methoxy-4-{6-[3-(4-phenyl-butyl)-ureido]-pyrido[2,3-b]pyrazin-3-yl}-benzoic acid]",1 nM
4,"C[C@H](CCCc1ccccc1)NC(=O)Nc1ccc2ncc(-c3cccc(CO)c3)nc2n1 [Compound 181, 1-[3-(3-Hydroxymethyl-phenyl)-pyrido[2,3-b]pyrazin-6-yl]-3-((R)-1-methyl-4-phenyl-butyl)-urea]",6 nM
5,"C[C@H](CCCc1ccccc1)NC(=O)Nc1ccc2ncc(-c3cnn(C)c3)nc2n1 [Compound 180, 1-((R)-1-Methyl-4-phenyl-butyl)-3-[3-(1-methyl-1H-pyrazol-4-yl)-pyrido[2,3-b]pyrazin-6-yl]urea]",6 nM

# Tested on: not given
# Test: not given
# Conditions: not given
row,Structure (SMILES),melting point
1,"CCCn1cc(-c2cnc3ccc(NC(=O)NCCCC(C)(C)c4ccccc4)nc3n2)cn1 [Compound 100, 1-(4-Methyl-4-phenyl-pentyl)-3-[3-(1-propyl-1H-pyrazol-4-yl)-pyrido[2,3-b]pyrazin-6-yl]-urea]",205 to 207 °C
2,"COc1ccc(-c2cnc3ccc(NC(=O)NCCCCc4ccccc4)nc3n2)cc1S(=O)(=O)N1CCOCC1 [Compound 145, 1-{3-[4-Methoxy-3-(morpholine-4-sulfonyl)-phenyl]-pyrido[2,3-b]pyrazin-6-yl}-3-(4-phenyl-butyl)-urea]",256 to 258 °C
3,"COc1cc(Nc2cnc3ccc(NC(=O)NCCCCc4ccccc4)nc3n2)cc(OC)c1OC [Compound 139, 1-(4-Phenyl-butyl)-3-[3-(3,4,5-trimethoxy-phenylamino)-pyrido[2,3-b]pyrazin-6-yl]-urea]",223 to 225 °C
4,"CC(C)(C)C(=O)Oc1ccc(-c2cnc3ccc(NC(=O)NCCCCc4ccccc4)nc3n2)cc1 [Compound 135, 2,2-Dimethyl-propionic acid 4-{6-[3-(4-phenyl-butyl)-ureido]-pyrido[2,3-b]pyrazin-3-yl}-phenyl ester]",225 °C
5,"C[C@H](CCCc1ccccc1)NC(=O)Nc1ccc2ncc(-c3ccc(O)cc3)nc2n1 [Compound 147, 1-[3-(4-Hydroxy-phenyl)-pyrido[2,3-b]pyrazin-6-yl]-3-((R)-1-methyl-4-phenyl-butyl)-urea]",226 to 229 °C
6,"C[C@H](CCCc1ccccc1)NC(=O)Nc1ccc2ncc(N3CCCCC3)nc2n1 [Compound 154, 1-((R)-1-Methyl-4-phenyl-butyl)-3-(3-piperidin-1-yl-pyrido[2,3-b]pyrazin-6-yl)-urea]",171 to 174 °C
7,"Cc1cc(O)ccc1-c1cnc2ccc(NC(=O)NCCCCc3ccccc3)nc2n1 [Compound 106, 1-[3-(4-Hydroxy-2-methyl-phenyl)-pyrido[2,3-b]pyrazin-6-yl]-3-(4-phenyl-butyl)-urea]",207 to 210 °C
8,CCNC(=O)Oc1ccc(-c2cnc3ccc(NC(=O)NCCCCc4ccccc4)nc3n2)cc1,198 °C
9,"CCCn1cc(-c2cnc3ccc(NC(=O)NCCCC(=O)c4ccccc4)nc3n2)cn1 [Compound 131, 1-(4-Oxo-4-phenyl-butyl)-3-[3-(1-propyl-1H-pyrazol-4-yl)-pyrido[2,3-b]pyrazin-6-yl]-urea]",210 to 211 °C
10,"COc1ccccc1-c1cnc2ccc(NC(=O)NCCCCc3ccccc3)nc2n1 [Compound 124, 1-[3-(2-Methoxy-phenyl)-pyrido[2,3-b]pyrazin-6-yl]-3-(4-phenyl-butyl)-urea]",173 to 177 °C
